The target of experiment [1] is PIM (PIM-1, PIM-2, and/or PIM-3). In words: PIM-1, PIM-2 and PIM-3 inhibition, biochemical chemiluminescence assays (Kinase Glo, IC50 determination). Conditions: Table 1 activity class; PIM refers to PIM-1, PIM-2, and/or PIM-3; read-out: PIM IC50 (Activity B). (In general: Kinase-Glo measures the ATP left after a reaction by luminescence.)
The next experiment addresses CK2 (Homo sapiens, UniProt P68400). In words: CK2 inhibition, biochemical chemiluminescence holoenzyme assay (Kinase Glo, IC50 determination). Conditions: Table 1 activity class; symbol given only if active; read-out: CK2 IC50 (Activity C). How it is done:
Characterization of CK2 Inhibition in a Biochemical Chemiluminesence Assay (IC50 Determination):
The IC50 evaluation of compounds against CK2 was performed in a Chemiluminesence Holoenzyme assay utilizing a Greiner 384-well white medium binding white plate format. […] The assay procedure involves the compound dilution scheme followed by addition of 10 μL of the substrate twice, followed by 10 μL twice of the respective enzyme or buffer to the designated well plates and subsequent pre-incubation of the compounds. Following an incubation period of 150 minutes at ambient temperature (24-27° C.), 10 μL of Kinase Glo (Promega) was added. The luminescence was measured following a Luminescence Protocol on a Victor plate reader.

Molecules are shown by their SMILES.

The results in this text go back to patent publication US20090247559A1 (Exelixis, Inc., priority 2007, published 2009).

Broadly, the IC50 is the concentration needed to halve the response being measured.

Sequence of CK2 (P68400 whole entry): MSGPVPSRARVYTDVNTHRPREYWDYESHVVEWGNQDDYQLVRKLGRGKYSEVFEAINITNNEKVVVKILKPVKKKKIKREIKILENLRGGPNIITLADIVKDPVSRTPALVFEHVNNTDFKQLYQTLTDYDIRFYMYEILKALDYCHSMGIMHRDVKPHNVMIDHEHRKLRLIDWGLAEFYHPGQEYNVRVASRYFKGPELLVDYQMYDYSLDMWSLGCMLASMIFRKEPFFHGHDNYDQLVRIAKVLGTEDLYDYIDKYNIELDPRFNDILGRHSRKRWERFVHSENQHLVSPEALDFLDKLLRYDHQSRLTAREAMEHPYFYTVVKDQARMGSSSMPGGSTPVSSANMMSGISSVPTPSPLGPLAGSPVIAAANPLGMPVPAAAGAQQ
Sequence of CK2 (P67870 whole entry partner): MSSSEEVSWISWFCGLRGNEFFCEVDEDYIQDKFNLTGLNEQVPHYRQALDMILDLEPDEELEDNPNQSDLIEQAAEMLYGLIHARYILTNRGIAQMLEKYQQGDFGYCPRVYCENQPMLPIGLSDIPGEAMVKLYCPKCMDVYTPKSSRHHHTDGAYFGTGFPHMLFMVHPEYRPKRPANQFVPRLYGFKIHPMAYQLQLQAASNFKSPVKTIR

Regarding `O=c1[nH]c(-c2ccc(NCc3c[nH]cn3)cc2Cl)nc2c1oc1ccc(Br)cc12` [Compound 139, 8-bromo-2-{2-chloro-4-[(1H-imidazol-4-ylmethyl)amino]phenyl}[1]benzofuro[3,2-d]pyrimidin-4(3H)-one], the half-maximal inhibitory concentration (IC50) (in experiment [1]; at CK2) was < 10 µM throughout.
Consider `COc1ccc2oc3c(=O)[nH]c(-c4cc([N+](=O)[O-])ccc4Cl)nc3c2c1` [Compound 145, 2-(2-chloro-5-nitrophenyl)-8-(methyloxy)[1]benzofuro[3,2-d]pyrimidin-4(3H)-one], for which the concentration for half-maximal inhibition (IC50) (in experiment [1]; at CK2) was < 10 µM each time.
Turning to `COC(=O)c1ccc(-c2nc3c(oc4ccc(Br)cc43)c(=O)[nH]2)c(Cl)c1` [Compound 146, methyl 4-(8-bromo-4-oxo-3,4-dihydro[1]benzofuro[3,2-d]pyrimidin-2-yl)-3-chlorobenzoate], the IC50 (in experiment [1]; at CK2) was < 10 µM in each case.
With `CCc1nccn1Cc1nc2c(oc3ccc(Br)cc32)c(=O)[nH]1` [Compound 149, 8-bromo-2-[(2-ethyl-1H-imidazol-1-yl)methyl][1]benzofuro[3,2-d]pyrimidin-4(3H)-one], the concentration for half-maximal inhibition (IC50) (in experiment [1]; at CK2) was < 10 µM in each case.
Regarding `CCN1CCN(Cc2nc3c(oc4ccc(Br)cc43)c(=O)[nH]2)CC1` [Compound 150, 8-bromo-2-[(4-ethylpiperazin-1-yl)methyl][1]benzofuro[3,2-d]pyrimidin-4(3H)-one], the IC50 (in experiment [1]; at CK2) was < 10 µM in each case.
As to `COCCN1CCN(Cc2nc3c(oc4ccc(Br)cc43)c(=O)[nH]2)CC1` [Compound 151, 8-bromo-2-({4-[2-(methyloxy)ethyl]piperazin-1-yl}methyl)[1]benzofuro[3,2-d]pyrimidin-4(3H)-one], the half-maximal inhibitory concentration (IC50) (in experiment [1]; at CK2) was < 10 µM throughout.
In the case of `COc1ccc2oc3c(=O)[nH]c(-c4ccncc4Cl)nc3c2c1` [Compound 152, 2-(3-chloropyridin-4-yl)-8-(methyloxy)[1]benzofuro[3,2-d]pyrimidin-4(3H)-one], the IC50 (in experiment [1]; on CK2) was < 10 µM in each case.
On to `O=C(CCc1c[nH]cn1)Nc1ccc(-c2nc3c(oc4ccc(Br)cc43)c(=O)[nH]2)c(Cl)c1` [Compound 162, N-[4-(8-bromo-4-oxo-3,4-dihydro[1]benzofuro[3,2-d]pyrimidin-2-yl)-3-chlorophenyl]-3-(1H-imidazol-4-yl)propanamide], for which the 50% inhibitory concentration (IC50) (in experiment [1]; at CK2) was < 10 µM in each case.
In the case of `CN1CCC(CNc2ccc(-c3nc4c(oc5ccc(Br)cc54)c(=O)[nH]3)c(Cl)c2)CC1` [Compound 163, 8-bromo-2-(2-chloro-4-{[(1-methylpiperidin-4-yl)methyl]amino}phenyl)[1]benzofuro[3,2-d]pyrimidin-4(3H)-one], the IC50 (in experiment [1]; at CK2) was < 10 µM each time.
For the compound `O=c1[nH]c(CNCc2ccncc2)nc2c1oc1ccc(Br)cc12` [Compound 165, 8-bromo-2-{[(pyridin-4-ylmethyl)amino]methyl}[1]benzofuro[3,2-d]pyrimidin-4(3H)-one], the 50% inhibitory concentration (IC50) (in experiment [1]; on CK2) was < 10 µM throughout.
As for `NCCN1CCC(Cc2nc3c(oc4ccc(Br)cc43)c(=O)[nH]2)CC1` [Compound 168, 2-{[1-(2-aminoethyl)piperidin-4-yl]methyl}-8-bromo[1]benzofuro[3,2-d]pyrimidin-4(3H)-one], the IC50 (in experiment [1]; on CK2) was < 10 µM in each case.
Regarding `COc1cccc2oc3c(=O)[nH]c(-c4ccc5[nH]nc(C)c5c4)nc3c12` [Compound 170, 2-(3-methyl-1H-indazol-5-yl)-9-(methyloxy)[1]benzofuro[3,2-d]pyrimidin-4(3H)-one], the half-maximal inhibitory concentration (IC50) (in experiment [1]; on CK2) was < 10 µM throughout.
Take `COc1cccc2oc3c(=O)[nH]c(-c4ccc5[nH]nc(N)c5c4)nc3c12` [Compound 171, 2-(3-amino-1H-indazol-5-yl)-9-(methyloxy)[1]benzofuro[3,2-d]pyrimidin-4(3H)-one]: the 50% inhibitory concentration (IC50) (in experiment [1]; on CK2) was < 10 µM in each case.
Consider `CCC(c1nc2c(oc3ccc(Br)cc32)c(=O)[nH]1)N1CCN(C)CC1` (centres unmarked) [Compound 172, 8-bromo-2-[1-(4-methylpiperazin-1-yl)propyl][1]benzofuro[3,2-d]pyrimidin-4(3H)-one], for which the IC50 (in experiment [1]; on CK2) was < 10 µM each time.
In the case of `O=c1[nH]c(Cn2ccnc2-c2ccccc2)nc2c1oc1ccc(Br)cc12` [Compound 176, 8-bromo-2-[(2-phenyl-1H-imidazol-1-yl)methyl][1]benzofuro[3,2-d]pyrimidin-4(3H)-one], the IC50 (in experiment [1]; on CK2) was < 10 µM in each case.
In the case of `CC(C)(NCc1nc2c(oc3ccc(Br)cc32)c(=O)[nH]1)C(N)=O` [Compound 177, N-2-[(8-bromo-4-oxo-3,4-dihydro[1]benzofuro[3,2-d]pyrimidin-2-yl)methyl]-2-methylalaninamide], the 50% inhibitory concentration (IC50) (in experiment [1]; on CK2) was < 10 µM each time.
Take `CN(C)CC(C)(C)CNc1ccc(-c2nc3c(oc4ccc(Br)cc43)c(=O)[nH]2)c(Cl)c1` [Compound 179, 8-bromo-2-(2-chloro-4-{[3-(dimethylamino)-2,2-dimethylpropyl]amino}phenyl)[1]benzofuro[3,2-d]pyrimidin-4(3H)-one]: the IC50 (in experiment [1]; at CK2) was < 10 µM each time.
Turning to `O=c1[nH]c(Nc2ccccc2)nc2c1oc1ccc(Br)cc12` [Compound 180, 8-bromo-2-(phenylamino)[1]benzofuro[3,2-d]pyrimidin-4(3H)-one], the IC50 (in experiment [1]; at CK2) was < 10 µM each time.
Consider `CC(=O)N1CCN(Cc2nc3c(oc4ccc(Br)cc43)c(=O)[nH]2)CC1` [Compound 187, 2-[(4-acetylpiperazin-1-yl)methyl]-8-bromo[1]benzofuro[3,2-d]pyrimidin-4(3H)-one], for which the 50% inhibitory concentration (IC50) (in experiment [1]; on CK2) was < 10 µM each time.
In the case of `CC(C)(CN1CCCC1)NCc1nc2c(oc3ccc(Br)cc32)c(=O)[nH]1` [Compound 190, 8-bromo-2-{[(1,1-dimethyl-2-pyrrolidin-1-ylethyl)amino]methyl}[1]benzofuro[3,2-d]pyrimidin-4(3H)-one], the IC50 (in experiment [1]; at CK2) was < 10 µM each time.
Turning to `Cc1ccc(N2C[C@@H]3C[C@H]2CN3Cc2nc3c(oc4ccc(Br)cc43)c(=O)[nH]2)cc1` [Compound 192, 8-bromo-2-{[(1S,4S)-5-(4-methylphenyl)-2,5-diazabicyclo[2.2.1]hept-2-yl]methyl}[1]benzofuro[3,2-d]pyrimidin-4(3H)-one], the IC50 (in experiment [1]; at CK2) was < 10 µM in each case.
Consider `CN(C)CCCNc1nc2c(oc3ccc(Br)cc32)c(=O)[nH]1` [Compound 193, 8-bromo-2-{[3-(dimethylamino)propyl]amino}[1]benzofuro[3,2-d]pyrimidin-4(3H)-one], for which the IC50 (in experiment [1]; at CK2) was < 10 µM each time.
In the case of `O=c1[nH]c(N2CCCC2)nc2c1oc1ccc(Br)cc12` [Compound 196, 8-bromo-2-pyrrolidin-1-yl[1]benzofuro[3,2-d]pyrimidin-4(3H)-one], the 50% inhibitory concentration (IC50) (in experiment [1]; on CK2) was < 10 µM in each case.
Take `CC(=O)N1CCC(c2nc3c(oc4ccc(Br)cc43)c(=O)[nH]2)CC1` [Compound 203, 2-(1-acetylpiperidin-4-yl)-8-bromo[1]benzofuro[3,2-d]pyrimidin-4(3H)-one]: the IC50 (in experiment [1]; on CK2) was < 10 µM each time.
For the compound `O=c1[nH]c(CN2CC[C@H](O)C2)nc2c1oc1ccccc12` [Compound 204, 2-{[(3S)-3-hydroxypyrrolidin-1-yl]methyl}[1]benzofuro[3,2-d]pyrimidin-4(3H)-one], the 50% inhibitory concentration (IC50) (in experiment [1]; at CK2) was < 10 µM each time.
As for `CN(C)CCC(=O)N1CCC(c2nc3c(oc4ccc(Br)cc43)c(=O)[nH]2)CC1` [Compound 206, 8-bromo-2-[1-(N,N-dimethyl-beta-alanyl)piperidin-4-yl][1]benzofuro[3,2-d]pyrimidin-4(3H)-one], the IC50 (in experiment [1]; at CK2) was < 10 µM throughout.
Take `CN(C)CCCC(=O)N1CCC(c2nc3c(oc4ccc(Br)cc43)c(=O)[nH]2)CC1` [Compound 207, 8-bromo-2-{1-[4-(dimethylamino)butanoyl]piperidin-4-yl}[1]benzofuro[3,2-d]pyrimidin-4(3H)-one]: the half-inhibitory concentration (IC50) (in experiment [1]; on CK2) was < 10 µM in each case.
Turning to `O=C(c1ccc2[nH]cnc2c1)N1CCC(c2nc3c(oc4ccc(Br)cc43)c(=O)[nH]2)CC1` [Compound 208, 2-[1-(1H-benzimidazol-5-ylcarbonyl)piperidin-4-yl]-8-bromo[1]benzofuro[3,2-d]pyrimidin-4(3H)-one], the half-maximal inhibitory concentration (IC50) (in experiment [1]; at CK2) was < 10 µM throughout.
Consider `COCCC(=O)N1CCC(c2nc3c(oc4ccc(Br)cc43)c(=O)[nH]2)CC1` [Compound 209, 8-bromo-2-{1-[3-(methyloxy)propanoyl]piperidin-4-yl}[1]benzofuro[3,2-d]pyrimidin-4(3H)-one], for which the IC50 (in experiment [1]; on CK2) was < 10 µM each time.
As for `CN(C)CC(=O)N1CCC(c2nc3c(oc4ccc(Br)cc43)c(=O)[nH]2)CC1` [Compound 210, 8-bromo-2-[1-(N,N-dimethylglycyl)piperidin-4-yl][1]benzofuro[3,2-d]pyrimidin-4(3H)-one], the IC50 (in experiment [1]; on CK2) was < 10 µM each time.
On to `NCc1cc(Cl)c(-c2nc3c(oc4ccc(Br)cc43)c(=O)[nH]2)cc1F` [Compound 211, 2-[4-(aminomethyl)-2-chloro-5-fluorophenyl]-8-bromo[1]benzofuro[3,2-d]pyrimidin-4(3H)-one], for which the IC50 (in experiment [1]; on CK2) was < 10 µM throughout.
